Experimental data: ChEMBL document CHEMBL5532678, “Comprehensive Insights that Targeting PIM for Cancer Therapy: Prospects and Obstacles” (J Med Chem, 2024)

How the values were obtained:
[1] = target: T1, Serine/threonine-protein kinase pim-2 (Homo sapiens, UniProt Q9P1W9); test: Inhibition of N-terminal GST-tagged full length human PIM2 (1 to 311 residues) expressed in baculovirus expression system using S6K2 peptide as substrate at 1 uM in presence of ATP by Mobility shift assay
[2] = target: T2, Serine/threonine-protein kinase pim-1 (Homo sapiens, UniProt P11309); test: Inhibition of human recombinant PIM1
[3] = target: T3, Polyunsaturated fatty acid 5-lipoxygenase (Homo sapiens, UniProt P09917); test: Inhibition of 5-LOX in human PMNL cells; type: cell-based
T3 sequence (P09917 whole entry): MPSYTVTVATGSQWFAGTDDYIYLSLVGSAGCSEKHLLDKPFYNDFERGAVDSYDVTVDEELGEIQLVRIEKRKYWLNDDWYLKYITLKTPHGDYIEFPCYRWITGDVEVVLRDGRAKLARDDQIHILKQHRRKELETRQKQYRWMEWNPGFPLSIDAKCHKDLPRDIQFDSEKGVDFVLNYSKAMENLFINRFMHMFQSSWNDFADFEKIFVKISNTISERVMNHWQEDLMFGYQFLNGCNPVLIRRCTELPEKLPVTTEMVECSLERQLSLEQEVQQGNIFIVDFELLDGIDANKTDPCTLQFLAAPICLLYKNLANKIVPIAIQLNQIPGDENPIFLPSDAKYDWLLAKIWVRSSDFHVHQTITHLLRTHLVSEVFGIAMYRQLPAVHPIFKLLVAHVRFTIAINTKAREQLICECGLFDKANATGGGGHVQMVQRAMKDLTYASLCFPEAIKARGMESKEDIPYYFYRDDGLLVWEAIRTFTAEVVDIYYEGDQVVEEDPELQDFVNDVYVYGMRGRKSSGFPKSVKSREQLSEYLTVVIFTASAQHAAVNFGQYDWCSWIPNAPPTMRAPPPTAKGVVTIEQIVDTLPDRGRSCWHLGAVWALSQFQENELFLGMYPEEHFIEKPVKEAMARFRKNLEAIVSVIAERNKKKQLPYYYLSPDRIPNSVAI

[4] = target: Prostaglandin G/H synthase 1 (Homo sapiens, UniProt P23219); test: Inhibition of COX1 (unknown origin) fluorescence based analysis
[5] = target: T4, Prostaglandin G/H synthase 2 (Homo sapiens, UniProt P35354); test: Inhibition of COX2 (unknown origin) fluorescence based analysis
T4 sequence (P35354 whole entry): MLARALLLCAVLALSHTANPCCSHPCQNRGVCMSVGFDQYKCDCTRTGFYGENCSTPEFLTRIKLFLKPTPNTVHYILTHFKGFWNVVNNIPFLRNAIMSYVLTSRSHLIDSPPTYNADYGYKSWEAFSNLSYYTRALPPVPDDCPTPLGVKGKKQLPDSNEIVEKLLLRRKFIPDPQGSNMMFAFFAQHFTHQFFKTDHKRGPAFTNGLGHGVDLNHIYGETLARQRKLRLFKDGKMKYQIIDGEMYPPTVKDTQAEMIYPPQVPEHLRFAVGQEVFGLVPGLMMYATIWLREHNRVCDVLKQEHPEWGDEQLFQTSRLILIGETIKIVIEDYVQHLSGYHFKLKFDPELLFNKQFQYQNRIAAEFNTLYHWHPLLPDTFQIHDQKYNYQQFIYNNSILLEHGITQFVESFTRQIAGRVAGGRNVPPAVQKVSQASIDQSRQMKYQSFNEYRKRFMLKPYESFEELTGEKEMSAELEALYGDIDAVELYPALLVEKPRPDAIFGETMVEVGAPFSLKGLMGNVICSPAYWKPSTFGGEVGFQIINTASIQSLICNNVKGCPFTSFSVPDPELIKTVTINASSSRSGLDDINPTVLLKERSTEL

[6] = target: T2, Serine/threonine-protein kinase pim-1; test: Inhibition of PIM1 (unknown origin) by FRET based Z-LYTE kinase assay
[7] = target: T1, Serine/threonine-protein kinase pim-2; test: Inhibition of PIM2 (unknown origin) by FRET based Z-LYTE kinase assay
[8] = target: T5, Serine/threonine-protein kinase pim-3 (Homo sapiens, UniProt Q86V86); test: Inhibition of PIM3 (unknown origin) by FRET based Z-LYTE kinase assay
[9] = target: T2, Serine/threonine-protein kinase pim-1; test: Inhibition of human PIM1 using KKRNRTLTK as substrate in presence of [gamma-33P]-ATP by hotspot kinase assay
MCF7 [10] = test: Cytotoxicity against human MCF7 cells assessed as reduction in cell growth incubated for 72 hrs by MTT assay; type: functional, cell-based; conditions: MCF7, 72 h
HCT-116 [11] = test: Cytotoxicity against human HCT-116 cells assessed as reduction in cell viability incubated for 72 hrs by MTT assay; type: functional, cell-based; conditions: HCT-116, 72 h
[12] = target: T2, Serine/threonine-protein kinase pim-1; test: Inhibition of human PIM1 by ADP Glo luminescent assay
[13] = target: T1, Serine/threonine-protein kinase pim-2; test: Inhibition of human PIM2 by ADP-Glo luminescent assay
MV4-11 = test: Antiproliferative activity against human MV4-11 cells assessed as inhibition of cell growth incubated for 72 hrs by Celltiter-glo assay; type: functional, cell-based; conditions: MV4-11, 72 h
HCT-116 [14] = test: Antiproliferative activity against human HCT-116 cells assessed as inhibition of cell growth incubated for 72 hrs by celltiter-glo assay; type: functional, cell-based; conditions: HCT-116, 72 h
[15] = target: T2, Serine/threonine-protein kinase pim-1; test: Inhibition of human full length-His6 tagged PIM1 (1 to 312 residues) expressed in Escherichia coli BL21 (DE3) using RSRHSSYPAGT as peptide substrate incubated for 10 mins in presence of [gamma-32P]ATP by radiometric scintillation assay
[16] = target: T1, Serine/threonine-protein kinase pim-2; test: Inhibition of human full length-His6 tagged PIM2 (1 to 311 residues) expressed in Escherichia coli BL21 (DE3) assessed as inhibition constant using RSRHSSYPAGT as peptide substrate incubated for 10 mins in presence of [gamma-32P]ATP by radiometric scintillation assay
[17] = target: T5, Serine/threonine-protein kinase pim-3; test: Inhibition of N-terminal GST-tagged full length human PIM3 (1 to 326 residues) expressed in baculovirus expression system using S6K2 peptide as substrate at 1 uM in presence of ATP by Mobility shift assay
[18] = target: T2, Serine/threonine-protein kinase pim-1
MCF7 [19] = test: Antiproliferative activity against human MCF7 cells assessed as reduction in cell growth incubated for 48 hrs by MTT assay; type: functional, cell-based; conditions: MCF7, 48 h
HCT-116 [20] = test: Antiproliferative activity against human HCT-116 cells assessed as inhibition of cell growth incubated for 24 hrs by MTT assay; type: functional, cell-based; conditions: HCT-116, 24 h
[21] = target: T1, Serine/threonine-protein kinase pim-2
[22] = target: T5, Serine/threonine-protein kinase pim-3
MCF7 [23] = test: Cytotoxicity against human MCF7 cells assessed as reduction in cell viability by MTT assay; type: functional, cell-based
[24] = target: T2, Serine/threonine-protein kinase pim-1; test: Inhibition of human PIM1 by discoverX kinome scan assay
PC-3 = test: Anticancer activity against human PC-3 cells assessed as inhibition of cell growth incubated for 24 hrs by MTT assay; type: functional, cell-based; conditions: PC-3, 24 h
HepG2 = test: Antiproliferative activity against human HepG2 cells assessed as inhibition of cell growth incubated for 72 hrs by MTT assay; type: functional, cell-based; conditions: HepG2, 72 h

In the case of `Cc1ccc(C(C)C)c(O)c1/C=N/N=C1/SC(CC(=O)O)C(=O)N1c1cccc2ccccc12` (configuration not stated), the IC50 [1] is reported as 1740 nM, the IC50 [2] is reported as 4090 nM and the IC50 [3] is reported as 3160 nM. For the same compound, the IC50 [4] was 200 nM and the IC50 [5] was 9110 nM.

With `CCOc1cc(/C=C2\SC(=S)NC2=O)ccc1O` the IC50 [6] was 420 nM, the IC50 [7] was 310 nM and the IC50 [8] was 170 nM.

In the case of `CCc1ccc(NC(=O)c2sc3nc(-c4ccc(OC)c(OC)c4)cc(-c4ccc(O)c(O)c4)c3c2N)cc1`, the IC50 [9] is reported as 9390 nM.

For `N#Cc1c(-c2ccccc2)cc(-c2ccccc2)nc1OCCCC(=O)NO`, the IC50 [9] was 344 nM.

`Cc1nc2sc3c(c2c(C)c1Br)NC(c1ccccc1Cl)NC3=O` (configuration not stated) gave an IC50 (MCF7 [10]) of 23800 nM and an IC50 (HCT-116 [11]) of 18600 nM.

`COc1ccc(N2C(=O)C(CC(=O)O)S/C2=N/N=C/c2c(C)ccc(C(C)C)c2O)cc1` (configuration not stated) showed an IC50 [1] of 976 nM, an IC50 [2] of 7210 nM and an IC50 [3] of 2810 nM. The IC50 [4] was 14000 nM and the IC50 [5] was 37 nM.

With `Cc1nc2cccc3c2nc1N[C@H](C)/C=C\C[C@H]1CNC(=O)c2cc-3[nH]c21` the IC50 [12] was 130 nM, the IC50 [13] was 500 nM and the IC50 (MV4-11) was 35500 nM. It also gave an IC50 (HCT-116 [14]) of 45300 nM.

Work on `COc1ccc(/C=C/C(=O)/C=C2/C(=O)Nc3cc(Br)ccc32)cc1` yielded an IC50 [15] of 370 nM, an IC50 [16] of 410 nM and an IC50 [17] of 300 nM.

In the case of `Cc1ccc(C(C)C)c(O)c1/C=N/N=C1NC(=O)C(CC(=O)O)S1` (configuration not stated), the IC50 [1] is reported as 1380 nM, the IC50 [2] is reported as 2960 nM and the IC50 [3] is reported as 3540 nM. It also gave an IC50 [4] of 9400 nM and an IC50 [5] of 91 nM.

For `COc1ccc(/C=C/C(=O)CC2(O)C(=O)Nc3cc(Br)ccc32)cc1` (configuration not stated), the IC50 [15] was 1620 nM, the IC50 [16] was 2460 nM and the IC50 [17] was 1740 nM.

In the case of `NCCN1CCN(CCN2c3ccncc3Oc3ccc(Br)cc32)CC1`, the IC50 [18] is reported as 0.9 nM.

Compound `Cc1nc2sc3c(c2c(C)c1Br)NC(c1ccc(O)c(O)c1)NC3=O` (configuration not stated) has an IC50 (MCF7 [19]) of 220 nM and an IC50 (HCT-116 [20]) of 370 nM.

With `C[C@@H]1CCCN(c2c(/C=C3\SC(=O)NC3=O)cccc2-c2ccccc2)C1` the IC50 [18] was 3 nM, the IC50 [21] was 5 nM and the IC50 [22] was 3 nM.

In the case of `COc1ccc(N2CCN(C(=O)c3sc4nc(C)c(Br)c(C)c4c3N)CC2)cc1`, the IC50 (MCF7 [23]) is reported as 107000 nM and the IC50 [24] is reported as 12700 nM.

`N#Cc1c(-c2ccccc2O)cc(-c2ccc(N3C(=O)c4ccccc4C3=O)cc2)nc1N` showed an IC50 [24] of 9760 nM, an IC50 (MCF7 [19]) of 13400 nM and an IC50 (PC-3) of 27600 nM. For the same compound, the IC50 (HepG2) was 14600 nM.

`CN1CCN(C[C@@H](NC(=O)CC2CNC(=O)c3cc(-c4cccc(Cl)c4)cn32)C2CCCCC2)CC1` (some centres not stated) gave an IC50 [15] of 1.5 nM.

Work on `Cc1ccc(-c2cncc(NCCN(C)C)n2)cc1CC1SC(=O)NC1=O` (configuration not stated) yielded an IC50 [7] of 6 nM and an IC50 [8] of 6 nM.
